Data from patent publication US20090137616A1, “METHOD FOR THE CONTROL OF PHYTOPATHOGENIC FUNGI” (Syngenta Crop Protection, Inc., priority 2004, published 2009).

Key:
Pythium = assay: Sensitivity of Pythium isolates to phenylamide and strobilurin fungicides (summary); type: cell-based; conditions: isolates from several species of Pythium that are insensitive to mefenoxam
Method: Plant and soil samples were collected from fields where plant stand establishment issues appeared to be increasing when using standard mefenoxam or metalaxyl seed treatment fungicide programs. Fungal pathogens were isolated from the plant and soil material. Pythium species were identified and studies were conducted to determine the sensitivity of these fungal pathogens to phenylamide and strobilurin fungicides. It can be seen that isolates from several species of Pythium that are insensitive to mefenoxam are sensitive to azoxystrobin or trifloxystrobin.

P. ultimum = assay: Greenhouse seed treatment efficacy, Pioneer hybrid 34M95 seeds in Pythium-infested soil; type: in vivo; conditions: vs uninoculated seeds
From the text: Seeds of the Pioneer hybrid 34M95 were untreated and treated with mefenoxam, azoxystrobin or trifloxystrobin at the rates described in Table 3. To test the efficacy of the seed treatment fungicides pasteurized soil was infested with each isolate of Pythium at a rate of 7.8% (volume of inoculum/volume of soil). All these studies were done under greenhouse conditions, and data presented as a comparison against uninoculated seeds.

[1] = P. ultimum 03-047, seed treatment 1 g a.i/100 KgSeeds
[2] = P. ultimum 03-795, seed treatment 1 g a.i/100 KgSeeds
[3] = P. ultimum 03-047, seed treatment 2 g a.i/100 KgSeeds
[4] = P. ultimum 03-795, seed treatment 2 g a.i/100 KgSeeds
[5] = P. ultimum 03-047, seed treatment 5 g a.i/100 KgSeeds
[6] = P. ultimum 03-795, seed treatment 5 g a.i/100 KgSeeds

SMILES | sensitivity of mefenoxam-insensitive Pythium isolates (Pythium) | % fresh weight reduction (P. ultimum; [1]) | % stand reduction (P. ultimum; [1]) | % fresh weight reduction (P. ultimum; [2]) | % stand reduction (P. ultimum; [2]) | % fresh weight reduction (P. ultimum; [3]) | % stand reduction (P. ultimum; [3]) | % fresh weight reduction (P. ultimum; [4]) | % stand reduction (P. ultimum; [4]) | % fresh weight reduction (P. ultimum; [5]) | % stand reduction (P. ultimum; [5]) | % fresh weight reduction (P. ultimum; [6]) | % stand reduction (P. ultimum; [6])
CO/C=C(/C(=O)OC)c1ccccc1Oc1cc(Oc2ccccc2C#N)ncn1 [Azoxystrobin, azoxystrobin] | sensitive | 7.9% | 0.0% | 24.7% | 6.7% | – | – | – | – | – | – | – | –
COCC(=O)N(c1c(C)cccc1C)[C@H](C)C(=O)OC [Mefenoxam, mefenoxam] | – | – | – | – | – | 5.2% | 6.7% | 15.3% | 6.7% | – | – | – | –
CON=C(C(=O)OC)c1ccccc1CON=C(C)c1cccc(C(F)(F)F)c1 [Trifloxystrobin, trifloxystrobin] | sensitive | – | – | – | – | – | – | – | – | 0.0% | 0.0% | 24.1% | 6.7%
